From article PMC9804871, “Effect of Opicapone on Levodopa Pharmacokinetics in Patients with Fluctuating Parkinson's Disease” (Movement Disorders, 2022)

Columns and labels:
[1] = test system: patients with PD and end-of-dose motor fluctuations; assay: 12-hour patient on/off monitoring on pharmacokinetics days; type: in vivo, human (patients with PD); details: for OFF-time / ON-time / ON-time With Dyskinesia / ON-time Without Dyskinesia / Time to Best-ON / Time to ON: mean; for 12-hour OFF-time / 12-hour ON-time / 12-hour ON-time With Dyskinesia / 12-hour ON-time Without Dyskinesia / 12-hour Time to Best-ON / 12-hour Time to ON: mean (SD)
Method: (§1) Clinical and safety/tolerability outcomes were also assessed as exploratory secondary outcomes. Clinical outcomes included on and off time assessed using patient‐rated tools. The timing of on and off states was registered (in real time) by the investigators during the matching 12‐hour pharmacokinetic evaluation (as such applied on pharmacokinetics days only), and patients also completed 24‐hour patient Hauser on/off diary charts[21] (in 30‐minute blocks) during the 3 days before each pharmacokinetic visit. Diary states of interest were off time and on time, including on without dyskinesia, on with nontroublesome dyskinesia, and on with troublesome dyskinesia. In addition, the Patient Global Impression of Change (PGI‐C) of opicapone 50 mg was evaluated at the end of the LD/CD 400/100 mg plus opicapone treatment compared with before the start of opicapone treatment.[22] Safety and tolerability endpoints included treatment‐emergent adverse events (TEAEs), serious TEAEs, and TEAEs leading to discontinuation.
(§2) Clinical outcomes are also presented descriptively. A paired t test was used for the comparison of 12‐hour off and on time, 24‐hour off and on time, time to on, and time to best on between each opicapone‐containing regimen and the regimen without opicapone. Estimates of mean difference and corresponding 90% CIs were reported for all main variables.

[2] = test system: patients with PD and end-of-dose motor fluctuations; assay: 24-hour patient Hauser on/off diary; type: in vivo, human (patients with PD); details: for ON-time With Non-Troublesome Dyskinesia / ON-time With Troublesome Dyskinesia / ON-time Without Dyskinesia / Total OFF-time / Total ON-time: 24-hour Hauser diary, mean (SD); for 24-h total off time, geometric mean (90% CI) / 24-h total on time, geometric mean (90% CI): N 12
Method: as §1, §2

[3] = 5-intake LD/CD 500/125mg vs 4-intake LD/CD 400/100mg plus OPC 50mg, 1st LD/CD intake
[4] = 5-intake LD/CD 500/125mg vs 4-intake LD/CD 400/100mg plus OPC 50mg, 2nd LD/CD intake
[5] = 5-intake LD/CD 500/125mg vs 4-intake LD/CD 400/100mg plus OPC 50mg, 3rd LD/CD intake
[6] = 5-intake LD/CD 500/125mg vs 4-intake LD/CD 400/100mg plus OPC 50mg, 4th LD/CD intake
[7] = 5-intake LD/CD 500/125mg vs 4-intake LD/CD 400/100mg plus OPC 50mg
[8] = 5-intake LD/CD 500/125mg vs 5-intake LD/CD 400/100mg plus OPC 50mg, 1st LD/CD intake
[9] = 5-intake LD/CD 500/125mg vs 5-intake LD/CD 400/100mg plus OPC 50mg, 2nd LD/CD intake
[10] = 5-intake LD/CD 500/125mg vs 5-intake LD/CD 400/100mg plus OPC 50mg, 3rd LD/CD intake
[11] = 5-intake LD/CD 500/125mg vs 5-intake LD/CD 400/100mg plus OPC 50mg, 4th LD/CD intake
[12] = 5-intake LD/CD 500/125mg vs 5-intake LD/CD 400/100mg plus OPC 50mg
[13] = five-intake levodopa/carbidopa 500/125 mg vs five-intake levodopa/carbidopa 400/100 mg plus opicapone 50 mg, N 9
[14] = five-intake levodopa/carbidopa 500/125 mg vs four-intake levodopa/carbidopa 400/100 mg plus opicapone 50 mg, N 10
[15] = five-intake levodopa/carbidopa 500/125 mg vs four-intake levodopa/carbidopa 400/100 mg plus opicapone 50 mg, N 12
[16] = five-intake levodopa/carbidopa 500/125 mg vs five-intake levodopa/carbidopa 400/100 mg plus opicapone 50 mg
[17] = five-intake levodopa/carbidopa 500/125 mg vs four-intake levodopa/carbidopa 400/100 mg plus opicapone 50 mg

levodopa/carbidopa [LD/CD]
OFF-time [1, 3]: 79.8 min | ON-time [1, 3]: 100.3 min | ON-time With Dyskinesia [1, 3]: 45.0 min | ON-time Without Dyskinesia [1, 3]: 92.8 min | Time to Best-ON [1, 3]: 55.0 min | Time to ON [1, 3]: 38.9 min | OFF-time [1, 4]: 106.9 min | ON-time [1, 4]: 73.1 min | ON-time With Dyskinesia [1, 4]: 23.3 min | ON-time Without Dyskinesia [1, 4]: 67.3 min | Time to Best-ON [1, 4]: 58.8 min | Time to ON [1, 4]: 50.0 min | OFF-time [1, 5]: 89.5 min | ON-time [1, 5]: 90.5 min | ON-time With Dyskinesia [1, 5]: 23.8 min | ON-time Without Dyskinesia [1, 5]: 81.8 min | Time to Best-ON [1, 5]: 62.0 min | Time to ON [1, 5]: 40.5 min | OFF-time [1, 6]: 84.6 min | ON-time [1, 6]: 91.3 min | ON-time With Dyskinesia [1, 6]: 22.5 min | ON-time Without Dyskinesia [1, 6]: 87.5 min | Time to Best-ON [1, 6]: 57.9 min | Time to ON [1, 6]: 42.1 min | 12-hour OFF-time [1, 7]: 353.3 (80.46) min | 12-hour ON-time [1, 7]: 347.5 (92.53) min | 12-hour ON-time With Dyskinesia [1, 7]: 60.0 (45.14) min | 12-hour ON-time Without Dyskinesia [1, 7]: 322.5 (106.27) min | 12-hour Time to Best-ON [1, 7]: 59.22 (14.92) min | 12-hour Time to ON [1, 7]: 46.14 (12.38) min | OFF-time [1, 8]: 88.5 min | ON-time [1, 8]: 91.5 min | ON-time With Dyskinesia [1, 8]: 33.8 min | ON-time Without Dyskinesia [1, 8]: 79.2 min | Time to Best-ON [1, 8]: 62.7 min | Time to ON [1, 8]: 41.5 min | OFF-time [1, 9]: 103.0 min | ON-time [1, 9]: 77.0 min | ON-time With Dyskinesia [1, 9]: 27.5 min | ON-time Without Dyskinesia [1, 9]: 71.5 min | Time to Best-ON [1, 9]: 51.7 min | Time to ON [1, 9]: 36.0 min | OFF-time [1, 10]: 86.5 min | ON-time [1, 10]: 93.5 min | ON-time With Dyskinesia [1, 10]: 31.7 min | ON-time Without Dyskinesia [1, 10]: 74.5 min | Time to Best-ON [1, 10]: 50.0 min | Time to ON [1, 10]: 44.5 min | OFF-time [1, 11]: 96.0 min | ON-time [1, 11]: 81.0 min | ON-time With Dyskinesia [1, 11]: 27.5 min | ON-time Without Dyskinesia [1, 11]: 75.5 min | Time to Best-ON [1, 11]: 57.5 min | Time to ON [1, 11]: 52.5 min | 12-hour OFF-time [1, 12]: 348.1 (103.9) min | 12-hour ON-time [1, 12]: 320.1 (83.80) min | 12-hour ON-time With Dyskinesia [1, 12]: 72.5 (24.24) min | 12-hour ON-time Without Dyskinesia [1, 12]: 280.5 (71.44) min | 12-hour Time to Best-ON [1, 12]: 55.46 (14.86) min | 12-hour Time to ON [1, 12]: 43.13 (11.32) min | 12-h off time, geometric mean (90% CI) [1, 13]: 376.9 (349.9, 406.0) min | 12-h on time, geometric mean (90% CI) [1, 13]: 333.1 (298.8, 371.2) min | 12-h time to on, geometric mean (90% CI) ([1]; five-intake levodopa/carbidopa 500/125 mg vs five-intake levodopa/carbidopa 400/100 mg plus opicapone 50 mg, N 10): 41.84 (36.03, 48.59) min | 12-h time to best on, geometric mean (90% CI) ([1]; five-intake levodopa/carbidopa 500/125 mg vs five-intake levodopa/carbidopa 400/100 mg plus opicapone 50 mg, N 12): 53.97 (47.84, 60.89) min | 12-h off time, geometric mean (90% CI) [1, 14]: 356.4 (313.2, 405.5) min | 12-h on time, geometric mean (90% CI) [1, 14]: 340.3 (292.0, 396.7) min | 12-h time to best on, geometric mean (90% CI) [1, 15]: 57.62 (50.84, 65.31) min | 12-h time to on, geometric mean (90% CI) [1, 15]: 44.62 (38.75, 51.39) min | ON-time With Non-Troublesome Dyskinesia [2, 7]: 86.7 (72.6) min | ON-time With Troublesome Dyskinesia [2, 7]: 35.0 (26.5) min | ON-time Without Dyskinesia [2, 7]: 411.7 (122.6) min | Total OFF-time [2, 7]: 442.50 (96.3) min | Total ON-time [2, 7]: 488.3 (110.9) min | ON-time With Non-Troublesome Dyskinesia [2, 12]: 66.4 (48.0) min | ON-time With Troublesome Dyskinesia [2, 12]: 20.0 (24.49) min | ON-time Without Dyskinesia [2, 12]: 446.7 (110.0) min | Total OFF-time [2, 12]: 431.70 (100.3) min | Total ON-time [2, 12]: 519.2 (91.2) min | 24-h total off time, geometric mean (90% CI) [2, 16]: 420.3 (369.8, 477.6) min | 24-h total on time, geometric mean (90% CI) [2, 16]: 512.5 (470.9, 557.9) min | 24-h total off time, geometric mean (90% CI) [2, 17]: 433.0 (386.4, 485.0) min | 24-h total on time, geometric mean (90% CI) [2, 17]: 476.5 (421.9, 538.2) min
